Source: publication PMC3670925, “Extracellular Modulation of the Silkmoth Sex Pheromone Receptor Activity by Cyclic Nucleotides” (PLoS ONE, 2013)
pEC50: −log10 of the molar value.

What was measured:
Type in all cases: cell-based
Or47a = target: T1, Or47a (Drosophila melanogaster, UniProt P81921); experiment: two-electrode voltage clamp in Xenopus oocytes, […]
T1 construct: with Orco
T1 sequence (P81921 1-385): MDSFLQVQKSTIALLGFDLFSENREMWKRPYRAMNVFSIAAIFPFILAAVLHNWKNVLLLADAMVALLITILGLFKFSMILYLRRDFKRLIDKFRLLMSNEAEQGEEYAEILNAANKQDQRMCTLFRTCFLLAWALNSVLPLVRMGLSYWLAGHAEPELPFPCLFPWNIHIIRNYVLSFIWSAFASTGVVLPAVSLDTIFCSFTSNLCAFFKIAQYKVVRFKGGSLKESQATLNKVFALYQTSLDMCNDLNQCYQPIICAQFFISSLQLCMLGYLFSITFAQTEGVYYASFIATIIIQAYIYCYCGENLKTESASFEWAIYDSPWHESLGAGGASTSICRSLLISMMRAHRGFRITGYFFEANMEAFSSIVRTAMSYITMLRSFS
T1 sequence (Q9VNB5 1-486 partner): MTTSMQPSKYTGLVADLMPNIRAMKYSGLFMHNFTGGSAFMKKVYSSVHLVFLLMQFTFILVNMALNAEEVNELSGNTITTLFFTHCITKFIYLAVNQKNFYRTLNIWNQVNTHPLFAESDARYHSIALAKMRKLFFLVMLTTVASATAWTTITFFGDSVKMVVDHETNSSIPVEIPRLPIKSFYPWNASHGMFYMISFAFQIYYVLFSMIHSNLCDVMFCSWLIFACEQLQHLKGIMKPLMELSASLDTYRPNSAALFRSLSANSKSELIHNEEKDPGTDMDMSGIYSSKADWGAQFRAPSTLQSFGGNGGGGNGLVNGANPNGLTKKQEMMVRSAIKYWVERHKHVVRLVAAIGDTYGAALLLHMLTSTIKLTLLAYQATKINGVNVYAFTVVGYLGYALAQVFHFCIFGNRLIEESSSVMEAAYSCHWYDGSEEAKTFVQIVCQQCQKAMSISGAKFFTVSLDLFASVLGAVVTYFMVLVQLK

BmOr-1 = target: T2, BmOr-1 (Bombyx mori, UniProt Q5WA61); experiment: two-electrode voltage clamp in Xenopus oocytes, dose-response
T2 construct: with BmOrco
T2 sequence (Q5WA61 1-430): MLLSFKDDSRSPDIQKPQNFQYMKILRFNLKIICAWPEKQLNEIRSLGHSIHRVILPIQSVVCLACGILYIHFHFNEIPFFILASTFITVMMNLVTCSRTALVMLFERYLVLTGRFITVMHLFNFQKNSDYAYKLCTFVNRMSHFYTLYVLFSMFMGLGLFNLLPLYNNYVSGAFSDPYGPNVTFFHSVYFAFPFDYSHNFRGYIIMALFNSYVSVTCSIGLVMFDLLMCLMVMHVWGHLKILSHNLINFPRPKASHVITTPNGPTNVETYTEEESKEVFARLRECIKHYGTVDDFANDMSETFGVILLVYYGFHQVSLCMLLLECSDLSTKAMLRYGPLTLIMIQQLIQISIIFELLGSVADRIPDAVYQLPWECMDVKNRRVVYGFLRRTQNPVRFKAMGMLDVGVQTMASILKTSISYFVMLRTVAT
T2 sequence (Q7YT34 1-472 partner): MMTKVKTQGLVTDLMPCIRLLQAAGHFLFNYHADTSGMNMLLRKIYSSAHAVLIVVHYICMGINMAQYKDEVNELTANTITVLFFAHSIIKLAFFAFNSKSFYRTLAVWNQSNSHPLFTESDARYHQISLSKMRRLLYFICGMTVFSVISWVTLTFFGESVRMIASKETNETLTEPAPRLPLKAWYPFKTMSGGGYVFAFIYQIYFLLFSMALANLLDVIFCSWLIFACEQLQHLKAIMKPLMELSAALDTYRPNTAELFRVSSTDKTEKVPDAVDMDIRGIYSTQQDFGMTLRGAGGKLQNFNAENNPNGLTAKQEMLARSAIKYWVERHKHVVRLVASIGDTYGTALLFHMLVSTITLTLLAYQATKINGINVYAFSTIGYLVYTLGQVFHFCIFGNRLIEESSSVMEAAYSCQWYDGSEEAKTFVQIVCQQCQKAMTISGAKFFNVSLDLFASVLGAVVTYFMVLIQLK

AgOr2 = target: T3, AgOr2 (Anopheles gambiae, UniProt Q8WTE6); experiment: two-electrode voltage clamp in Xenopus oocytes, […]
T3 construct: gene OR2; with AgOrco
T3 sequence (Q8WTE6 whole entry): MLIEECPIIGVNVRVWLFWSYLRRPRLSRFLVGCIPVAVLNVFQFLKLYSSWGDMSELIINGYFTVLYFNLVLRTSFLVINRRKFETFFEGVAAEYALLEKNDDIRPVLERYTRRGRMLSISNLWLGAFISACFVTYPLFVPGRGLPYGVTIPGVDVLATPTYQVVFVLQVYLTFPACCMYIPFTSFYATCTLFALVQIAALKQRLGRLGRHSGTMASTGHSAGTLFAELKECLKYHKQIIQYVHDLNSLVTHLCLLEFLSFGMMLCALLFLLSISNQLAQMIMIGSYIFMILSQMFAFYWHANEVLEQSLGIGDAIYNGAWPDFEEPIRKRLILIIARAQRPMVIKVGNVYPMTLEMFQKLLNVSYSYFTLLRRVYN

In the case of CCCCCOC(C)=O [pentylacetate], the “two-electrode voltage clamp in Xenopus oocytes, 100 μM” value (Or47a) was “oocytes expressing various insect Or-Orco complex in response to their cognate ligands and cyclic nucleotide reagents”.

For CCC/C=C\C=C\CCCCCCCCCO [bombykol], the pEC50 (BmOr-1) was 5.09.

With Cc1ccccc1O [2-methylphenol] the “two-electrode voltage clamp in Xenopus oocytes, 100 μM” value (AgOr2) was “oocytes expressing various insect Or-Orco complex in response to their cognate ligands and cyclic nucleotide reagents”.
